Structures can show the parent of a compound that is named as a salt.
Test system: HER2
Test: HER2 degradation assay with BT-474 cell line (Example 12, FACS)
Assay type: cell-based, human
From the text: HER2 has emerged as a key target for anticancer drugs due to its intrinsic involvement in the phosphatidylinositol-3-kinase-Akt/protein kinase B (PI3K-Akt) and the mitogen-activated protein kinase (MAPK) pathways, both of which suppress apoptosis and promote tumor cell survival, gene transcription, angiogenesis, cellular proliferation, migration, mitosis, and differentiation. The degradation of HER2 is a measure of efficacy of anticancer therapeutics that target Hsp90. Accordingly, the SDC-TRAP molecules of the invention that comprise a binding moiety that binds Hsp90 were tested in the following HER2 degradation assay.
BT-474 cells (human breast cancer cell line ATCC HTB-20) were obtained from ATCC and seeded into 12-well tissue culture plates at 0.2×10^6/1.8 mL/well. […] Each test compound was titrated in 4-fold dilutions from 5 μM to 78 nM with DMSO and 200 μL of the titration was added to each well of the cell plate. The DMSO final concentration was 0.2%. Cells were incubated overnight at 37° C. in 5% CO2.
Media was decanted from the plate, cells were washed 1× in PBS. 400 μL trypsin (EDTA) per well was added, and the cells were incubated for 2 to 3 minutes. Cells were collected into FACS tubes containing 1 ml culture medium to neutralize the trypsin and were centrifuged for 5 minutes at 1200 rpm. Supernatant was decanted and the cells were resuspended in 5 μL FITC (anti HER2/nu)/200 μL staining buffer (1×PBS+1% FBS+0.05% Sodium Azide)/tube. Controls were 5 μL IgG isotype control and staining buffer only. Tubes were incubated for 30 minutes in the dark at room temperature. 1 mL staining buffer was added to each tube and the tubes were centrifuged for 6 minutes at 1200 rpm. The supernatant was decanted and 300 μL staining buffer was added to each tube, which was store at 4° C. fpr FACS (cytometer) analysis. The cytometer readout was normalized and the potency of each compound is evaluated with IC50 calculated with XLfit™ software.

Row | Compound | IC50 [nM]
1 | CCc1c2c(nc3ccc(O)cc13)-c1cc3c(c(=O)n1C2)COC(=O)[C@@]3(CC)OC(=O)N1CCC(Oc2ccc(-n3c(O)nnc3-c3cc(C(C)C)c(O)cc3O)cc2)CC1 [SDC-TRAP-0012, (S)-4,11-diethyl-9-hydroxy-3,14-dioxo-3,4,12,14-tetrahydro-1H-pyrano[13′,4′:6,7]indolizino[1,2-b]quinolin-4-yl-4-(4-(3-(2,4-dihydroxy-5-isopropylphenyl)-5-hydroxy-4H-1,2,4-triazol-4-yl)phenoxy)piperidine-1-carboxylate hydrochloride] | > 5000
2 | CCc1c2c(nc3ccc(O)cc13)-c1cc3c(c(=O)n1C2)COC(=O)[C@@]3(CC)OC(=O)N(C)CCCN1CCN(Cc2ccc(-n3c(O)nnc3-c3cc(C(C)C)c(O)cc3O)cc2)CC1 [SDC-TRAP-0084, (S)-4,11-diethyl-9-hydroxy-3,14-dioxo-3,4,12,14-tetrahydro-1H-pyrano[3′,4′:6,7]indolizino[1,2-b]quinolin-4-yl (3-(4-(4-(3-(2,4-dihydroxy-5-isopropylphenyl)-5-hydroxy-4H-1,2,4-triazol-4-yl)benzyl)piperazin-1-yl)propyl)(methyl)carbamate] | 1130
3 | CCc1c2c(nc3ccc(OC(C)=O)cc13)-c1cc3c(c(=O)n1C2)COC(=O)C3(CC)OC(=O)N(C)CCCCN1CCN(Cc2ccc(-n3c(O)nnc3-c3cc(C(C)C)c(O)cc3O)cc2)CC1 (stereo not shown) [SDC-TRAP-0181, 4-(((4-(4-(4-(3-(2,4-Dihydroxy-5-isopropylphenyl)-5-hydroxy-4H-1,2,4-triazol-4-yl)benzyl)piperazin-1-yl)butyl)(methyl)carbamoyl)oxy)-4,11-diethyl-3,14-dioxo-3,4,12,14-tetrahydro-1H-pyrano[3′,4′:6,7]indolizino[1,2-b]quinolin-9-yl acetate] | 164
4 | CCNC(=O)c1nnc(-c2cc(C(C)C)c(O)cc2O)n1-c1ccc(CN2CCC(C(=O)N(C)CCC(=O)OC3(CC)C(=O)OCc4c3cc3n(c4=O)Cc4c-3nc3ccc(O)cc3c4CC)CC2)cc1 (stereo not shown) [SDC-TRAP-0100, 4,11-Diethyl-9-hydroxy-3,14-dioxo-3,4,12,14-tetrahydro-1H-pyrano[3′,4′:6,7]indolizino[1,2-b]quinolin-4-yl 3-(1-(4-(3-(2,4-dihydroxy-5-isopropylphenyl)-5-(ethylcarbamoyl)-4H-1,2,4-triazol-4-yl)benzyl)-N-methylpiperidine-4-carboxamido)propanoate] | 80
5 | CCc1c2c(nc3ccc(O)cc13)-c1cc3c(c(=O)n1C2)COC(=O)C3(CC)OC(=O)N1CCN(C(=O)CCc2ccc(-n3c(O)nnc3-c3cc(C(C)C)c(O)cc3O)cc2)CC1 (stereo not shown) [SDC-TRAP-0060, 4,11-diethyl-9-hydroxy-3,14-dioxo-3,4,12,14-tetrahydro-1H-pyrano[3′,4′:6,7]indolizino[1,2-b]quinolin-4-yl 4-(3-(4-(3-(2,4-dihydroxy-5-isopropylphenyl)-5-hydroxy-4H-1,2,4-triazol-4-yl)phenyl)propanoyl)piperazine-1-carboxylate] | > 5000
6 | COc1ccc(/C=C\c2cc(OC)c(OC)c(OC)c2)cc1OC(=O)N1CCN(Cc2ccc(-n3c(O)nnc3-c3cc(C(C)C)c(O)cc3O)cc2)CC1 [SDC-TRAP-0085, (Z)-2-methoxy-5-(3,4,5-trimethoxystyryl)phenyl 4-(4-(3-(2,4-dihydroxy-5-isopropylphenyl)-5-hydroxy-4H-1,2,4-triazol-4-yl)benzyl) piperazine-1-carboxylate] | 889
7 | CCc1c2c(nc3ccc(O)cc13)-c1cc3c(c(=O)n1C2)COC(=O)C3(CC)OC(=O)C1CCN(C(=O)CN2CCN(c3ccc(-n4c(O)nnc4-c4cc(C(C)C)c(O)cc4O)cc3)CC2)CC1 (stereo not shown) [SDC-TRAP-0111, 4,11-Diethyl-9-hydroxy-3,14-dioxo-3,4,12,14-tetrahydro-1H-pyrano[3′,4′:6,7]indolizino[1,2-b]quinolin-4-yl 1-(2-(4-(4-(3-(2,4-dihydroxy-5-isopropylphenyl)-5-hydroxy-4H-1,2,4-triazol-4-yl)phenyl)piperazin-1-yl)acetyl)piperidine-4-carboxylate] | > 5000
8 | CCc1c2c(nc3ccc(OC(=O)N4CCC(c5nc6cc(-n7c(O)nnc7-c7cc(C(C)C)c(O)cc7O)ccc6n5C)CC4)cc13)-c1cc3c(c(=O)n1C2)COC(=O)C3(O)CC (stereo not shown) [SDC-TRAP-0095, 4,11-diethyl-4-hydroxy-3,14-dioxo-3,4,12,14-tetrahydro-1H-pyrano[3′,4′:6,7]indolizino[1,2-b]quinolin-9-yl 4-(5-(3-(2,4-dihydroxy-5-isopropylphenyl)-5-hydroxy-4H-1,2,4-triazol-4-yl)-1-methyl-1H-benzo[d]imidazol-2-yl)piperidine-1-carboxylate] | > 5000
9 | CCNC(=O)c1nnc(-c2cc(C(C)C)c(O)cc2O)n1-c1ccc(C(=O)N2CCN(c3ccc(OC(=O)Nc4cccc5c4CN(C4CCC(=O)NC4=O)C5=O)c(C)c3)CC2)cc1 (stereo not shown) [SDC-TRAP-0176, 4-(4-(4-(3-(2,4-dihydroxy-5-isopropylphenyl)-5-(ethylcarbamoyl)-4H-1,2,4-triazol-4-yl)benzoyl)piperazin-1-yl)-2-methylphenyl (2-(2,6-dioxopiperidin-3-yl)-1-oxoisoindolin-4-yl)carbamate] | 178
10 | CCc1c2c(nc3ccc(OC(=O)N4CCC(N5CCN(c6ccc(-n7c(O)nnc7-c7cc(C(C)C)c(O)cc7O)cc6)CC5)CC4)cc13)-c1cc3c(c(=O)n1C2)COC(=O)C3(O)CC (stereo not shown) [SDC-TRAP-0101, 4,11-diethyl-4-hydroxy-3,14-dioxo-3,4,12,14-tetrahydro-1H-pyrano[3′,4′:6,7]indolizino[1,2-b]quinolin-9-yl 4-(4-(4-(3-(2,4-dihydroxy-5-isopropylphenyl)-5-hydroxy-4H-1,2,4-triazol-4-yl)phenyl)piperazin-1-yl)piperidine-1-carboxylate] | 280
11 | CCc1c2c(nc3ccc(OC(=O)NCCOCCn4ccc5cc(-n6c(O)nnc6-c6cc(C(C)C)c(O)cc6O)ccc54)cc13)-c1cc3c(c(=O)n1C2)COC(=O)C3(O)CC (stereo not shown) [SDC-TRAP-0016, 4,11-diethyl-4-hydroxy-3,14-dioxo-3,4,12,14-tetrahydro-1H-pyrano[3′,4′:6,7]indolizino[1,2-b]quinolin-9-yl (2-(2-(5-(3-(2,4-dihydroxy-5-isopropylphenyl)-5-hydroxy-4H-1,2,4-triazol-4-yl)-1H-indol-1-yl)ethoxy)ethyl)carbamate] | > 5000
12 | CCc1c2c(nc3ccc(OC(=O)N4CCN(C(=O)c5cc6cc(-n7c(O)nnc7-c7cc(C(C)C)c(O)cc7O)ccc6n5C)CC4)cc13)-c1cc3c(c(=O)n1C2)COC(=O)C3(O)CC (stereo not shown) [SDC-TRAP-0072, 4,11-diethyl-4-hydroxy-3,14-dioxo-3,4,12,14-tetrahydro-1H-pyrano[3′,4′:6,7]indolizino[1,2-b]quinolin-9-yl 4-(5-(3-(2,4-dihydroxy-5-isopropylphenyl)-5-hydroxy-4H-1,2,4-triazol-4-yl)-1-methyl-1H-indole-2-carbonyl)piperazine-1-carboxylate] | > 5000
13 | CCc1c2c(nc3ccc(OC(=O)N4CCC(Oc5ccc(-n6c(O)nnc6-c6cc(C(C)C)c(O)cc6O)cc5)CC4)cc13)-c1cc3c(c(=O)n1C2)COC(=O)[C@]3(O)CC [SDC-TRAP-0011, (S)-4,11-diethyl-4-hydroxy-3,14-dioxo-3,4,12,14-tetrahydro-1H-pyrano[3′,4′:6,7]indolizino[1,2-b]quinolin-9-yl 4-(4-(3-(2,4-dihydroxy-5-isopropylphenyl)-5-hydroxy-4H-1,2,4-triazol-4-yl)phenoxy) piperidine-1-carboxylate] | > 5000
14 | CCc1c2c(nc3ccc(O)cc13)-c1cc3c(c(=O)n1C2)COC(=O)C3(CC)OC(=O)CCC(=O)NCCn1ccc2cc(-n3c(O)nnc3-c3cc(C(C)C)c(O)cc3O)ccc21 (stereo not shown) [SDC-TRAP-0026] | 1780
15 | CCc1c2c(nc3ccc(O)cc13)-c1cc3c(c(=O)n1C2)COC(=O)[C@@]3(CC)OC(=O)N1CCN(c2ccc(-n3c(O)nnc3-c3cc(C(C)C)c(O)cc3O)cn2)CC1 [SDC-TRAP-0091, (S)-4,11-diethyl-9-hydroxy-3,14-dioxo-3,4,12,14-tetrahydro-1H-pyrano[3′,4′:6,7]indolizino[1,2-b]quinolin-4-yl 4-(5-(3-(2,4-dihydroxy-5-isopropylphenyl)-5-hydroxy-4H-1,2,4-triazol-4-yl)pyridin-2-yl)piperazine-1-carboxylate] | > 5000
16 | CCc1c2c(nc3ccc(OC(=O)N4CCN(Cc5cc6cc(-n7c(O)nnc7-c7cc(C(C)C)c(O)cc7O)ccc6n5C)CC4)cc13)-c1cc3c(c(=O)n1C2)COC(=O)C3(O)CC (stereo not shown) [SDC-TRAP-0073, 4,11-diethyl-4-hydroxy-3,14-dioxo-3,4,12,14-tetrahydro-1H-pyrano[3′,4′:6,7]indolizino[1,2-b]quinolin-9-yl 4-((5-(3-(2,4-dihydroxy-5-isopropylphenyl)-5-hydroxy-4H-1,2,4-triazol-4-yl)-1-methyl-1H-indol-2-yl)methyl)piperazine-1-carboxylate] | 478

Reference: patent US10828315B2 (Madrigal Pharmaceuticals, Inc., priority 2013, dated 2020)
